Assay results: patent US20210220370A1, “SELECTIVE HDAC8 INHIBITORS AND THEIR USES” (HOCHSCHULE DARMSTADT, priority 2015, published 2021)
Where two headings read alike, the source gives them in different places.

How the values were obtained:
[1] = tested on: uterine leiomyosarcoma cell line SKUT-1; assay: Growth inhibition of cancer cell line, resazurin assay; type: cell-based, Human; details: Table 2, resazurin assay
[2] = tested on: breast cancer cell line MCF-7; assay: as above; type: cell-based, Human; details: Table 2, resazurin assay
[3] = tested on: T cell leukemia cell line JURKAT; assay: as above; details: for GI50: read-out: GI50 JURKAT
Procedure: The following tumor cell lines were used: • Human uterine leiomyosarcoma cell line SKUT-1 (ATCC® HTB114™) • Human T cell leukemia cell line JURKAT (ATCC® TIB152™) • Human breast cancer cell line MCF-7 (ATCC® HTB22™)
Cells were cultured in Dulbecco's modified Eagle's medium (DMEM) supplemented with 10% FCS.

HDAC2 = HDAC2 (Homo sapiens, UniProt Q92769); assay: HDAC2 colorimetric assay, substrate Boc-Lys(Ac)-AMC; type: biochemical
HDAC6 = target: T1, HDAC6 (Homo sapiens, UniProt Q9UBN7); assay: HDAC6 colorimetric assay, substrate Boc-Lys(Ac)-AMC; type: biochemical
T1 sequence (Q9UBN7 1-1215): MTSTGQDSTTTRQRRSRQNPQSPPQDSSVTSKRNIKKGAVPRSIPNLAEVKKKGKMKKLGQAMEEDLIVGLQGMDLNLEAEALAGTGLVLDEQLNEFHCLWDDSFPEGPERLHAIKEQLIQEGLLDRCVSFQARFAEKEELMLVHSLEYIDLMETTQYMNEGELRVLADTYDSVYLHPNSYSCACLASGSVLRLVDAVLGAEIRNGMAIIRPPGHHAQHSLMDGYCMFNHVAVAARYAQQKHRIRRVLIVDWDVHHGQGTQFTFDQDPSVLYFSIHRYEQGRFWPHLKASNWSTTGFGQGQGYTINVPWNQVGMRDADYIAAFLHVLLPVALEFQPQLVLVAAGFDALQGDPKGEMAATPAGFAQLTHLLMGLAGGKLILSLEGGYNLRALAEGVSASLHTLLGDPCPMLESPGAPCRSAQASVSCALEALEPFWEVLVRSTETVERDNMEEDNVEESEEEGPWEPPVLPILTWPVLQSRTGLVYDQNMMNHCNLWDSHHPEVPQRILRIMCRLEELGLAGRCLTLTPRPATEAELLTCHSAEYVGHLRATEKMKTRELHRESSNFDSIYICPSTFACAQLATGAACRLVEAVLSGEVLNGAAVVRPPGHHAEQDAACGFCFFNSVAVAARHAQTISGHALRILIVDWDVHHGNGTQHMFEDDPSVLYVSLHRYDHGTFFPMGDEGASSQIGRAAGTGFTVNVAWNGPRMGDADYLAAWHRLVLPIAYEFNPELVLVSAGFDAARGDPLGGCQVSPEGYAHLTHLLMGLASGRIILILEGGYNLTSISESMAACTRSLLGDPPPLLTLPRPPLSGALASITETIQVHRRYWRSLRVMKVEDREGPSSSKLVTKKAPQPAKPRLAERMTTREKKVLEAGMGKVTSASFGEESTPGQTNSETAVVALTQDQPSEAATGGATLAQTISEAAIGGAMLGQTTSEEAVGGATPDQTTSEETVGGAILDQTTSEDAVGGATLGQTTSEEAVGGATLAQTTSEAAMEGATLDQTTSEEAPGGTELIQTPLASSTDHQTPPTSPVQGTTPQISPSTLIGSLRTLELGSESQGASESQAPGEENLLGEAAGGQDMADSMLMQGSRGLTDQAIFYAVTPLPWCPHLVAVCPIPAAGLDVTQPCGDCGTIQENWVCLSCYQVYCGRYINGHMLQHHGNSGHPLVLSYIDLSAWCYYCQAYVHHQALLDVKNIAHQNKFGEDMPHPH

HDAC1 = HDAC1 (Homo sapiens, UniProt Q13547); assay: HDAC1 colorimetric assay, substrate Boc-Lys(Ac)-AMC
Procedure: 1 nM of HDAC1 was incubated with increasing concentrations of the respective compound for 30 minutes at 30° C. The reaction was initiated by addition of 50 μM of the substrate Boc-Lys(Ac)-AMC. After an incubation of 60 minutes the reaction was stopped by addition of 20 μM SAHA and the deacetylated substrate was converted into a fluorescent product by the addition of trypsin.

HDAC5 = HDAC5 (Homo sapiens, UniProt Q9UQL6); assay: HDAC5 colorimetric assay, substrate Boc-Lys(TFA)-AMC
HDAC7 = target: T2, HDAC7 (Homo sapiens, UniProt Q8WUI4); assay: HDAC7 colorimetric assay, substrate Boc-Lys(TFA)-AMC
T2 sequence (Q8WUI4 1-952): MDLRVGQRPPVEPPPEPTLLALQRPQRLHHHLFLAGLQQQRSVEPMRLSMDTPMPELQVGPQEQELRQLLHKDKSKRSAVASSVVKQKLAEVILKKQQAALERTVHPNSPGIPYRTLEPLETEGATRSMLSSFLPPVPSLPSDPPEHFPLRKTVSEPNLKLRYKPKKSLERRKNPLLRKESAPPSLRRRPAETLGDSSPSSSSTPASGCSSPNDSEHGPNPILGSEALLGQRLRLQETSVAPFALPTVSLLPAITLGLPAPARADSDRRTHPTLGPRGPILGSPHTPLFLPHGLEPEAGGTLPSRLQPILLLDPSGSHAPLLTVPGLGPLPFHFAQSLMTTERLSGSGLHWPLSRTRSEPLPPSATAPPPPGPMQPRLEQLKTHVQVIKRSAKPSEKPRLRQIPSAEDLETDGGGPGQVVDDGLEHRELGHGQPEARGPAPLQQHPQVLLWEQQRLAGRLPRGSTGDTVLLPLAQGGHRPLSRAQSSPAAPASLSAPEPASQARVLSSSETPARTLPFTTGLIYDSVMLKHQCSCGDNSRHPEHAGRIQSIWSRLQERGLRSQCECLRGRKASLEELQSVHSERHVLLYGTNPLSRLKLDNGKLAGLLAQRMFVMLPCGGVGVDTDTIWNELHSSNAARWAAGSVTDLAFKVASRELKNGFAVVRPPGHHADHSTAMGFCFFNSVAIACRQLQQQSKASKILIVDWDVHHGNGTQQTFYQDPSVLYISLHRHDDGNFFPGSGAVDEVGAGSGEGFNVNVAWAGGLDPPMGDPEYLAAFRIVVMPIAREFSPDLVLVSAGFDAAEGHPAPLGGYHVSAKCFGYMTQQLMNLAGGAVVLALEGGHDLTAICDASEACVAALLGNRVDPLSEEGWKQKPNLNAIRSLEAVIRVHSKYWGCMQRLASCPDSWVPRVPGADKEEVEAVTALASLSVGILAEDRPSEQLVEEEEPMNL

HDAC3 = HDAC3 (Homo sapiens, UniProt O15379); assay: HDAC3 colorimetric assay, substrate Boc-Lys(Ac)-AMC; type: biochemical; details: Table 1
HDAC4 = HDAC4 (Homo sapiens, UniProt P56524); type: biochemical; details: Table 1
HDAC8 = target: T3, HDAC8 (Homo sapiens, UniProt Q9BY41); assay: HDAC8 colorimetric assay, substrate Boc-Lys(TFA)-AMC
T3 sequence (Q9BY41 1-377): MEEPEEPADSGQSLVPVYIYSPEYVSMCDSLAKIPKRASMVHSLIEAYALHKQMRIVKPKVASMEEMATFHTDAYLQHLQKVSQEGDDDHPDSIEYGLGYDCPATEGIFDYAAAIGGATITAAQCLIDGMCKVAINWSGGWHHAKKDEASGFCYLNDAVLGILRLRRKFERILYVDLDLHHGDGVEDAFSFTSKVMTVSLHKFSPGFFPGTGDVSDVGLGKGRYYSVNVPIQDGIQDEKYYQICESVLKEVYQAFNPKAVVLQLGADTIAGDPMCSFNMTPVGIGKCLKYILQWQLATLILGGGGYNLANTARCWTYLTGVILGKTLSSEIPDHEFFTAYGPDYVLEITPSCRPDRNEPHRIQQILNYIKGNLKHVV
Procedure: 1 nM of HDAC4 was incubated with increasing concentrations of the respective compound for 30 minutes at 30° C. The reaction was initiated by addition of 20 μM of the substrate Boc-Lys(trifluoracetyl)-AMC. After an incubation of 60 minutes the reaction was stopped by addition of 20 μM SAHA and the deacetylated substrate was converted into a fluorescent product by the addition of trypsin.

[4] = IC50 for HDAC1, FIG. 3, 50 μM Boc-Lys(Ac)-AMC
[5] = IC50 for HDAC7, FIG. 3, 20 μM Boc-Lys(TFA)-AMC
[6] = IC50 for HDAC8, FIG. 3, 20 μM Boc-Lys(TFA)-AMC

HDAC2, sequence (Q92769 whole entry): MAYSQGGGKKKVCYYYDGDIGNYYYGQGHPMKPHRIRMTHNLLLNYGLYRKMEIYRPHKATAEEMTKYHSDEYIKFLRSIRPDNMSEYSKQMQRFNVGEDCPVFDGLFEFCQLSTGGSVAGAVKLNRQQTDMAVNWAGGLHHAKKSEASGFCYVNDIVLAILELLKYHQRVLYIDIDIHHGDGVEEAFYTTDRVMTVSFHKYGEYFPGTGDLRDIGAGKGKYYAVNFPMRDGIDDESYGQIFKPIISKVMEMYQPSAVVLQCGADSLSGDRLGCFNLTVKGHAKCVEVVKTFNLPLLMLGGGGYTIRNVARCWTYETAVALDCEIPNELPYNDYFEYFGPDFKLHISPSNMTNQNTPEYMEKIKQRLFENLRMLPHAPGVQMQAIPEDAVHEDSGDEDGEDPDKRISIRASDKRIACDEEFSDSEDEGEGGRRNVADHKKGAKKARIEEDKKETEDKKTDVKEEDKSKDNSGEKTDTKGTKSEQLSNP
HDAC3, sequence (O15379 whole entry): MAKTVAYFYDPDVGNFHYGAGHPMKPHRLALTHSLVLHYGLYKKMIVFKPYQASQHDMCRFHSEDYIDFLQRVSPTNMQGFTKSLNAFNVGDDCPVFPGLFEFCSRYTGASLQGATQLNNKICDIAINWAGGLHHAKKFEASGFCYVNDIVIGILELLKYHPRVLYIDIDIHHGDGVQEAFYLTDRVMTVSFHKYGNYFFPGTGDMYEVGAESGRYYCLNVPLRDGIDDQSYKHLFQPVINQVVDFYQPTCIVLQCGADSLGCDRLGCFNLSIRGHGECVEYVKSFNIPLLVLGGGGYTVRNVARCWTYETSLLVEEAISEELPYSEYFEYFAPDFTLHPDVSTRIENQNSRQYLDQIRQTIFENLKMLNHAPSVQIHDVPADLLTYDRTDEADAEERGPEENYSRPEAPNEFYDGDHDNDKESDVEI
HDAC3, sequence (Q9Y618 395-489 partner limits assumed): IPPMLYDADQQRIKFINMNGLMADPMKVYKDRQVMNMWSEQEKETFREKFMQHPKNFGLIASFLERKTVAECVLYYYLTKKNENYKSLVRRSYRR
HDAC4, sequence (P56524 whole entry): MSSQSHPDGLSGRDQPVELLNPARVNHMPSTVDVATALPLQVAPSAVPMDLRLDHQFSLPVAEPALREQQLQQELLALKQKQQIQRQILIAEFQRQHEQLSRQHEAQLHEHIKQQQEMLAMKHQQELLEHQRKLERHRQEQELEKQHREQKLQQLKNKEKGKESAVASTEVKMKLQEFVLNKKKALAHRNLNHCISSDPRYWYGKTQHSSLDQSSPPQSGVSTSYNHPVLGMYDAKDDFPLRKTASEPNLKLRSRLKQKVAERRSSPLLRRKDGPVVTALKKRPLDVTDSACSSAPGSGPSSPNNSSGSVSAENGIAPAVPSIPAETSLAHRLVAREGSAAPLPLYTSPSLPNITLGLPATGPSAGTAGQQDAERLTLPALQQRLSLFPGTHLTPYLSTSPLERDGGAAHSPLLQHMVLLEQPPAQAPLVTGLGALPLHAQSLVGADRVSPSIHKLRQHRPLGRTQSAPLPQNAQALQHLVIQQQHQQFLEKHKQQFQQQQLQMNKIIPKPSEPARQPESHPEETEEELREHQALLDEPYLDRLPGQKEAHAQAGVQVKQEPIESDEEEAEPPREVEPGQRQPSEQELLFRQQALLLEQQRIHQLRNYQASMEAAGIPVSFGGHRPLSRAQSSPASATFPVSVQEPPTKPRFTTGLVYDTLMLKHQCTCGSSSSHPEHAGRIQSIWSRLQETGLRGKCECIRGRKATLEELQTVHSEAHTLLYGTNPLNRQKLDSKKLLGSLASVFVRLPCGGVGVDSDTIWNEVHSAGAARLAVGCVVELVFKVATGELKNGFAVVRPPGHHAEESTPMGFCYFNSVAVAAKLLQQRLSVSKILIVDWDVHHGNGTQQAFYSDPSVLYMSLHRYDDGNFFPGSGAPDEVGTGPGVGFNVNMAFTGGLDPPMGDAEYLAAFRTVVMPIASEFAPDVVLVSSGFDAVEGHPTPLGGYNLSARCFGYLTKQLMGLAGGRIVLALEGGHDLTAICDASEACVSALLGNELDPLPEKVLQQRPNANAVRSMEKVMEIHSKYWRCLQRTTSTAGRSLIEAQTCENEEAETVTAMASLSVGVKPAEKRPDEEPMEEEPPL
HDAC5, sequence (Q9UQL6 whole entry): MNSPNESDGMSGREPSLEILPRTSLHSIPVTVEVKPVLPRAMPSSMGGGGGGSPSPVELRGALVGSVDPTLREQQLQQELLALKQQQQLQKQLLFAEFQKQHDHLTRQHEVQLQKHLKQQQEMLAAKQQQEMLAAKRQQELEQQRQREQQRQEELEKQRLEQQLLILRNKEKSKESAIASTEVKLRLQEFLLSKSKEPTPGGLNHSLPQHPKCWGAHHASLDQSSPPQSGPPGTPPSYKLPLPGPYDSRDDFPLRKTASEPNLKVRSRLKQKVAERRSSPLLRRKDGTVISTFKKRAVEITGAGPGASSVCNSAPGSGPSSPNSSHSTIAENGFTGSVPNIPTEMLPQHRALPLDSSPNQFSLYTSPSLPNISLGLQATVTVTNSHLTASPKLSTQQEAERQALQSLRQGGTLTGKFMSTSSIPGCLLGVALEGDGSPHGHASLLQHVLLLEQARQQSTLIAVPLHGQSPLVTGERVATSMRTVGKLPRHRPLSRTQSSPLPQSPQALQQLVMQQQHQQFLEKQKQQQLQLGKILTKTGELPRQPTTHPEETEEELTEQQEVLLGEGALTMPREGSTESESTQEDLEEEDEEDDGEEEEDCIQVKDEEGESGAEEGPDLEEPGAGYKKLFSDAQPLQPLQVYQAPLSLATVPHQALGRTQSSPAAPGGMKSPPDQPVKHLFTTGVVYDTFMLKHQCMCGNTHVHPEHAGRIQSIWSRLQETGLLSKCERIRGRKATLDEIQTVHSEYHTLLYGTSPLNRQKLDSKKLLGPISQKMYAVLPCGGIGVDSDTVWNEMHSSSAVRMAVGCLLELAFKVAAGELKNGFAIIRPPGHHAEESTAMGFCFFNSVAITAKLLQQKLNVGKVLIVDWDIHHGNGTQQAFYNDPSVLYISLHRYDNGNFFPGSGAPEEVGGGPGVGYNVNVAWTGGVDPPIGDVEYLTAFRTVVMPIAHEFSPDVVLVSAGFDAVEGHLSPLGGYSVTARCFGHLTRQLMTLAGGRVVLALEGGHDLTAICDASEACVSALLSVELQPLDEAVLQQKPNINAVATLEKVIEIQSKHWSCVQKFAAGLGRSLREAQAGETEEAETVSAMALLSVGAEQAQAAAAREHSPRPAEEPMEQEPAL
HDAC1, sequence (Q13547 whole entry): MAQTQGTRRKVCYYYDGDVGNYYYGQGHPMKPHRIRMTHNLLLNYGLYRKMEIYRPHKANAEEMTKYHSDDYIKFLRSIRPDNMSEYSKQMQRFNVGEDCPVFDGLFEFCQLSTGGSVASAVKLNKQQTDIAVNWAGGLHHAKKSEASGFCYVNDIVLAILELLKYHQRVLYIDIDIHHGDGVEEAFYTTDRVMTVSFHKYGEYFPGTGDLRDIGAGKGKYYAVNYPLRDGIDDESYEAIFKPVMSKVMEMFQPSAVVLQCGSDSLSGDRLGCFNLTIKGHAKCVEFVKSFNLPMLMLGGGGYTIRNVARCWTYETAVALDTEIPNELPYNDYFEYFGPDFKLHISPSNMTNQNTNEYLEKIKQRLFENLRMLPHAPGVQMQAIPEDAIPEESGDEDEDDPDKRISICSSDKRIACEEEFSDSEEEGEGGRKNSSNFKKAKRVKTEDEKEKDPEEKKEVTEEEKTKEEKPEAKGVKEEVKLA

Structure (SMILES) | GI50 ([1]; Homo sapiens, SK-UT-1) [µM] | GI50 ([2]; Homo sapiens, MCF7) [µM] | GI50 ([3]; Homo sapiens, Jurkat) [µM] | IC50 (HDAC1; IC50 HDAC1, Table 1) [µM] | IC50 (HDAC2; Table 1) [µM] | IC50 (HDAC3) [µM] | IC50 (HDAC4) [µM] | IC50 (HDAC6; Table 1, read-out: IC50 HDAC6) [µM] | IC50 (HDAC5) [nM] | IC50 (HDAC7; IC50 HDAC7, Table 1) [nM] | IC50 (HDAC8; IC50 HDAC8, Table 1) [nM] | IC50 (HDAC1; [4]) [µM] | further results
O=C(CCCCCCC(=O)Nc1ccccc1)NO [Compound 1, Vorinostat, reference compound] | 5.4 ± 0.4 | 3.7 ± 0.4 | 3.7 ± 0.4 |  |  |  |  |  |  |  |  |  | 
COc1ccc(Cn2ccc3ccc(C(=O)NO)cc32)cc1 [Compound 6, PCI-34051, reference compound] |  |  |  |  |  |  |  |  |  |  |  |  | GI50 ([1]; read-out: GI50 SK-UT-1): 136 ± 62 µM; GI50 ([2]; read-out: GI50 MCF7): 65 ± 18 µM; GI50 ([3]; Table 2, resazurin assay): 40 ± 4 µM
N=C1Sc2ccccc2C2=NCCCN12 [Compound 13a, 3,4-Dihydrobenzo[e]Pyrimido[1,2-c][1,3]Thiazin-6(2H)-Imine] | 736 ± 659 | > 1000 | 63 ± 8 | 3.6 ± 0.8 |  |  |  |  |  |  |  |  | IC50 (HDAC2): 32 ± 1.5 µM; IC50 (HDAC6): 6.7 ± 0.8 µM; IC50 (HDAC5; read-out: IC50 HDAC5, Table 1): 110 ± 10 nM; IC50 (HDAC7; read-out: IC50 HDAC7, Table 1): 220 ± 20 nM; GI against JURKAT cells [3]: 63 µM; times less active against JURKAT cells than on the isolated HDAC8 enzyme ([3]; ratio of JURKAT value to HDAC8 IC50): more than 5700
N=C1Sc2ccccc2C2=NCCN12 [Compound 13b, 2H-Benzo[e]Imidazo[1,2-c][1,3]Thiazin-5(3H)-Imine] | 343 ± 191 | 213 ± 50 | 558 ± 342 | > 50 | > 50 | > 50 | > 50 | > 50 | > 50000 | 1300 ± 700 | 4400 ± 800 |  | 
N=C1Sc2ccc(Cl)cc2C2=NCCCN12 [Compound 13e, 10-Chloro-3,4-Dihydrobenzo[e]Pyrimido[1,2-c][1,3]Thiazin-6(2H)-Imine] | > 1000 | > 1000 | 56 ± 9 |  | > 50 | 20 ± 1 | 5.7 ± 0.3 | 1.2 ± 0.4 | 1000 |  | 5.9 ± 0.3 | 7.9 | IC50 (HDAC7; [5]): 80 nM; IC50 (HDAC8; [6]): 5.5 nM
N=C1Sc2cc(F)ccc2C2=NCCCN12 [Compound 13f, 9-Fluoro-3,4-Dihydrobenzo[e]Pyrimido[1,2-c][1,3]Thiazin-6(2H)-Imine] | 147 ± 73 | > 1000 | 33 ± 3 | 2.9 ± 0.3 | > 50 | 10 ± 0.56 | 2.84 ± 0.13 | 9 ± 4 | 170 ± 20 | 2600 ± 400 | 4.1 ± 0.2 |  | 
N=C1Sc2cc(Br)ccc2C2=NCCCN12 [Compound 13g, 9-Bromo-3,4-Dihydrobenzo[e]Pyrimido[1,2-c][1,3]Thiazin-6(2H)-Imine] | 76 ± 7 | > 1000 | 30 ± 3 | 1.7 ± 0.2 | > 50 | 6.7 ± 0.4 | 2 ± 0.1 | 2.8 ± 0.7 | 140 ± 20 | 1700 ± 200 | 2.9 ± 0.1 |  | 
N=C1Sc2ccccc2C2=NCCCN12 [Compound P2742, 6H-6-Imino-(2,3,4,5-tetrahydropyrimido)[1,2-c]-[1,3]benzothiazine, reference compound] |  |  |  |  |  |  |  |  |  |  |  | 3 | IC50 (HDAC5; read-out: IC50 for HDAC5, FIG. 3, 20 μM Boc-Lys(TFA)-AMC): 110 nM; IC50 (HDAC7): 240 nM

The next lines start with results.

GI50 ([1]; Homo sapiens, SK-UT-1) [µM] | GI50 ([2]; Homo sapiens, MCF7) [µM] | GI50 ([3]; Homo sapiens, Jurkat) [µM] | IC50 (HDAC1; IC50 HDAC1, Table 1) [µM] | IC50 (HDAC2; Table 1) [µM] | IC50 (HDAC3) [µM] | IC50 (HDAC4) [µM] | IC50 (HDAC6; Table 1, read-out: IC50 HDAC6) [µM] | IC50 (HDAC5) [nM] | IC50 (HDAC7; IC50 HDAC7, Table 1) [nM] | IC50 (HDAC8; IC50 HDAC8, Table 1) [nM] | IC50 (HDAC1; [4]) [µM] | Structure (SMILES) | further results
64 ± 7 | 60 ± 6 | 67 ± 8 | 21 ± 1 | > 50 | > 50 | > 50 | 32 ± 18 | 13000 | 500 ± 200 | 180 ± 20 | 20 | N=C1Sc2ccc(Cl)cc2C2=NCCN12 [Compound 13c, 9-Chloro-2H-Benzo[e]Imidazo[1,2-c][1,3]Thiazin-5(3H)-Imine] | IC50 (HDAC7; [5]): 510 nM; IC50 (HDAC8; [6]): 200 nM
106 ± 21 | 200 ± 58 | 153 ± 28 |  | > 50 | > 50 | > 50 | 14 ± 1 | 12000 | 2000 ± 500 | 72 ± 3 | 34 | CN(C)c1ccc2c(c1)SC(=N)N1CCCN=C21 [Compound 13d, 6-Imino-N,N-Dimethyl-2,3,4,6-Tetrahydrobenzo[e]Pyrimido[1,2-c][1,3]Thiazin-9-Imine] | IC50 (HDAC7; [5]): 2100 nM; IC50 (HDAC8; [6]): 71 nM
> 1000 | > 1000 | 42 ± 3 | 35 ± 3 | > 50 | > 50 | 5.1 ± 0.6 | 5.2 ± 1.1 | 740 ± 160 | 5000 ± 1000 | 17 ± 1 |  | N=C1Sc2c(F)cccc2C2=NCCCN12 [Compound 13h, 8-Fluoro-3,4-dihydrobenzo[e]pyrimido[1,2-c][1,3]thiazin-6(2H)-imine] | 
